Measured values from patent US20080045584A1, “Use of Docetaxel for Treating Hepatocellular Carcinoma” (priority 1999, published 2008).
Like-named read-outs stand apart in the source and are kept apart here.

Legend:
[1] = system: hepatocellular carcinomas; details: cited from earlier work
Hep 3B cells [2] = assay: Propidium iodide (PI) exclusion assay, flow cytometry; type: cell-based, human
Protocol: (§1) Cells were grown on 5-cm^2 flasks (CORNING) and treated with paclitaxel and docetaxel as set out above. Propidium iodide (10 μg/ml) was then added for 15 minutes incubation at 37° C. Then, medium was collected prior to harvest of the adherent cells. Both suspended and attached cells were collected and resuspended with 500 μl PBS for flow cytometry analysis as set out below. Debris signals were removed by FSC-SSC gating.
(§2) Cells (10000) were analyzed on a Becton Dickinson FACS Calibur flow cytometer using an argon-ion laser (15 mWatt) with incident beam at 488 nm. For PI exclusion assay, red fluorescence was collected through a 585 nm filter and the cell debris signals were removed by FSC-SSC gating. Data were acquired and analyzed using FACS/CELL Quest software on a Power Macintosh 7600/120 computer. Apoptotic cells and cells at specific cycle phases were determined by ModFit LT software.
(§3) Data are mean±standard error of mean from duplicated sample of at least three independent experiments. Cells were treated with drugs for 24-72 hours, and membrane permeability was measured by flowcytometric analysis of propidium exclusion in viable hepatoma cells. Data are the percentage of cells with intact cell membrane as compared to control

Hep G2 cells [3] = assay: as above; type: cell-based, human
Protocol: as §1, §2, §3

HA22T/VGH cells [4] = assay: as above; type: cell-based, human
Protocol: as §1, §2, §3

Hepa 1-6 cells [5] = assay: as above; type: cell-based, murine
Protocol: as §1, §2, §3

Hep 3B cells [6] = assay: Flow cytometric analysis of DNA content (cell cycle, sub-G0/G1); type: cell-based, human; details: for % of apoptotic (sub-G0/G1) cells: 72 hrs
Protocol: (§4) Lysing buffer (0.5% Triton X-100, 0.2 μg/ml Na2EDTA.2H2O, and 1% bovine serum albumin in PBS) was added to the cell pellets which were then left on ice for 15 minutes. 100% methanol pre-cooled to −20° C. was then added to the mixture, which was then centrifuged at 300×g for 5 minutes. The supernatant was discarded and the cell pellet was washed with PBS. The washed pellet was stained with a DNA staining solution (50 μg/ml propidium iodide, and 5 kunitz/ml of RNase A) for 30 minutes at 4° C. in the dark. The DNA content of each cell was measured using a Becton Dickinson FACS Calibur flow cytometer as set out below.
as §2
(§5) Table 1 gives figures for cell membrane permeability of the hepatoma cells, following treatment with paclitaxel and docetaxel. Table 2 details the percentage of apoptotic (sub-G0/G1) cells found after paclitaxel and docetaxel treatment.

Hep G2 cells [7] = assay: as above; type: cell-based, human; details: Hep G2, 1 μM, 24 hours
Protocol: as §4, §2, §5

HA22T/VGH cells [8] = assay: as above; type: cell-based, human; details: for % of apoptotic (sub-G0/G1) cells: 72 hrs
Protocol: as §4, §2, §5

Hep G2 cells [9] = assay: Cell viability study: MTT assay; type: cell-based, human; details: Homo sapiens, HepG2, Hep G2, 10 μM, read-out: viability, % of control
Protocol: The experiments detailed below involve human hepatoma cell lines Hep3B (ATCC designation HB 8064), HepG2 (ATCC designation HB 8065) and HA22T/VGH, and murine hepatoma cell line Hepa 1-6. These cells were cultured in DMEM (GIBCO, BRL) containing 10% fetal bovine serum (Hyclone), 0.01 mg/ml gentamycin and 0.1 mM non-essential amino acid. Cells were grown in a CO2 incubator at 37° C., with 5% CO2 and 95% filtered air.
Paclitaxel was dissolved in dimethylsulfoxide (DMSO) and docetaxel was dissolved in ethanol as stock solutions. The final concentration of vehicle was less than 0.1%.
Cells were cultured in a 96 well cell culture cluster (COSTAR) at a density of 4×10^4 cells/ml. After drug treatment for 24 hours or 72 hours, medium was discarded and replaced with an equal volume (100 μl) of fresh medium containing MTT (0.456 mg/ml; 3-[4,5-Dimethylthiazol-2-yl]2,5-diphenyl-tetrazolium bromide) and incubated for 1.5 hours at 37° C. The fresh medium was then discarded, and 100 μl DMSO was then added. Cell viability was determined by colorimetric comparison by reading OD values from a microplate reader (SPECTRA MAX250) at an absorption wavelength of 570 nm.
Data are the mean i standard error of mean from duplicate samples of three independent experiments.

Hep G2 cells [10] = assay: DNA fragmentation electrophoresis analysis; type: cell-based, human; details: Hep G2, 0.1 and 1 μM, 72 hours
Protocol: DNA fragmentation assessment was according to the method Herrmann et al, Nucleic Acids Res., 22, 5506-5507, 1994.
Briefly, HEP G2 cells (2×10^7) were treated for 72 hours with paclitaxel and docetaxel as set out above and centrifuged. The thus obtained cell pellets were resuspended with NP-40 lysis buffer (1% NP-40 in 20 mM EDTA, 50 mM Tris-HCl, pH 7.5). After lysis of cells for a few seconds, the supernatants were collected (5 minutes at 1600×g). The extraction was repeated with the same lysis buffer. SDS (final concentration 1%) and RNase were added (final concentration 2.5 μg/μl) to supernatants and incubated for 2 hours at 56° C. followed by digestion with proteinase K (2.5 μg/μl) for 2 hours at 37° C. Then, the mixtures were added to 10 M ammonium acetate prior to 100% ethanol precipitation for 30 minutes at −20° C. The DNA was collected by centrifugation (10 min at 12000 ×g) followed by electrophoresis on 1.5% agarose gel.
In FIG. 3, M is a 100 base pair marker. […] Lanes 2 and 3 show mean paclitaxel (0.1 and 1 μM) treatment groups. Lanes 4 and 5 show mean docetaxel (0.1 and 1 μM) treatment groups.

hepatocellular carcinoma = details: phase II clinical trial; cited from earlier work
Hepa 1-6 cells [11] = assay: Flow cytometric analysis of DNA content (cell cycle, sub-G0/G1); type: cell-based, murine; details: for % of apoptotic (sub-G0/G1) cells: Hepa 1-6, 24 hrs
Protocol: as §4, §2, §5

COc1cc2c(cc1O)CC[C@@H]1[C@@H]2CC[C@]2(C)[C@@H](O)CC[C@@H]12 [2-methoxyestradiol]
tolerability ([1]; mice, 1 month of daily treatment): well tolerated
activity against hepatocellular carcinomas ([1]; mouse, in vivo): active

CC(=O)O[C@H]1C(=O)[C@@]2(C)[C@H]([C@H](OC(=O)c3ccccc3)[C@]3(O)C[C@H](OC(=O)[C@H](O)[C@@H](NC(=O)c4ccccc4)c4ccccc4)C(C)=C1C3(C)C)[C@]1(OC(C)=O)CO[C@@H]1C[C@@H]2O [Paclitaxel]
percentage of cells with intact cell membrane as compared to control (Hep 3B cells [2]; 24 hrs, 0.01 μM): 77.35 ± 11.7%
percentage of cells with intact cell membrane as compared to control (Hep 3B cells [2]; 24 hrs, 0.1 μM): 63.50 ± 4.0%
percentage of cells with intact cell membrane as compared to control (Hep 3B cells [2]; 24 hrs, 1 μM): 52.28 ± 4.1%
percentage of cells with intact cell membrane as compared to control (Hep 3B cells [2]; 72 hrs, 0.01 μM): 57.00 ± 7.9%
percentage of cells with intact cell membrane as compared to control (Hep 3B cells [2]; 72 hrs, 0.1 μM): 8.09 ± 2.3%
percentage of cells with intact cell membrane as compared to control (Hep 3B cells [2]; 72 hrs, 1 μM): 1.90 ± 0.3%
percentage of cells with intact cell membrane as compared to control (Hep G2 cells [3]; Hep G2, 24 hrs, 0.01 μM): 93.63 ± 1.1%
percentage of cells with intact cell membrane as compared to control (Hep G2 cells [3]; Hep G2, 24 hrs, 0.1 μM): 85.71 ± 6.8%
percentage of cells with intact cell membrane as compared to control (Hep G2 cells [3]; Hep G2, 24 hrs, 1 μM): 66.71 ± 7.2%
percentage of cells with intact cell membrane as compared to control (Hep G2 cells [3]; Hep G2, 72 hrs, 0.01 μM): 56.58 ± 28.7%
percentage of cells with intact cell membrane as compared to control (Hep G2 cells [3]; Hep G2, 72 hrs, 0.1 μM): 43.79 ± 11.7%
percentage of cells with intact cell membrane as compared to control (Hep G2 cells [3]; Hep G2, 72 hrs, 1 μM): 13.27 ± 4.3%
percentage of cells with intact cell membrane as compared to control (HA22T/VGH cells [4]; 24 hrs, 0.01 μM): 94.08 ± 18.6%
percentage of cells with intact cell membrane as compared to control (HA22T/VGH cells [4]; 24 hrs, 0.1 μM): 40.03 ± 7.8%
percentage of cells with intact cell membrane as compared to control (HA22T/VGH cells [4]; 24 hrs, 1 μM): 34.24 ± 8.3%
percentage of cells with intact cell membrane as compared to control (HA22T/VGH cells [4]; 72 hrs, 0.01 μM): 92.58 ± 21.3%
percentage of cells with intact cell membrane as compared to control (HA22T/VGH cells [4]; 72 hrs, 0.01 μM, listed as paclitaxel): 92.58%
percentage of cells with intact cell membrane as compared to control (HA22T/VGH cells [4]; 72 hrs, 0.1 μM): 93.38 ± 32.5%
percentage of cells with intact cell membrane as compared to control (HA22T/VGH cells [4]; 72 hrs, 1 μM): 49.32 ± 8.3%
percentage of cells with intact cell membrane as compared to control (Hepa 1-6 cells [5]; Hepa 1-6, 24 hrs, 0.01 μM): 93.17 ± 3.8%
percentage of cells with intact cell membrane as compared to control (Hepa 1-6 cells [5]; Hepa 1-6, 24 hrs, 0.1 μM): 67.20 ± 4.4%
percentage of cells with intact cell membrane as compared to control (Hepa 1-6 cells [5]; Hepa 1-6, 24 hrs, 1 μM): 62.65 ± 7.6%
percentage of cells with intact cell membrane as compared to control (Hepa 1-6 cells [5]; Hepa 1-6, 72 hrs, 0.01 μM): 62.95 ± 5.6%
percentage of cells with intact cell membrane as compared to control (Hepa 1-6 cells [5]; Hepa 1-6, 72 hrs, 0.1 μM): 27.79 ± 1.3%
percentage of cells with intact cell membrane as compared to control (Hepa 1-6 cells [5]; Hepa 1-6, 72 hrs, 1 μM): 15.51 ± 1.0%
effect on cell cycle progression (Hep 3B cells [6]; 0.1 μM or 1 μM, 24 hours): G2/M arrest
% of apoptotic (sub-G0/G1) cells (Hep 3B cells [6]; 0.1 mM (text: μM)): 38.37%
% of apoptotic (sub-G0/G1) cells (Hep 3B cells [6]; 1 mM (text: μM)): 47.01%
effect on cell cycle progression (DNA histogram) (Hep G2 cells [7]): obvious G2/M phase arrest
% of apoptotic (sub-G0/G1) cells (HA22T/VGH cells [8]; 0.1 mM (table head; text: μM)): 0%
% of apoptotic (sub-G0/G1) cells (HA22T/VGH cells [8]; 0.1 mM (table head; text: μM), listed as paclitaxel): No significant sub-G0/G1 population
% of apoptotic (sub-G0/G1) cells (HA22T/VGH cells [8]; 1 mM (table head; text: μM)): 0%
% of apoptotic (sub-G0/G1) cells (HA22T/VGH cells [8]; 1 mM (table head; text: μM), listed as paclitaxel): No significant sub-G0/G1 population
effect on cell cycle progression (HA22T/VGH cells [8]; increasing concentrations 0.001 μM to 1 μM, 24 hours): elevated percentage of G2/M cells
viability at 10 µM (Hep G2 cells [9]; 24 hours): 61.8%
viability at 10 µM (Hep G2 cells [9]; 72 hours): 39.5%
DNA fragmentation (agarose gel, FIG. 3) (Hep G2 cells [10]): induced DNA fragmentation
anti-cancer effect in HCC patients (hepatocellular carcinoma): no significant anti-cancer effect
effect on cell cycle progression (Hepa 1-6 cells [11]; Hepa 1-6, 0.1 μM and 1 μM, 24 hours): G2/M phase arrest
cell cycle profile (Hepa 1-6 cells [11]; Hepa 1-6, 0.1 μM and 1 μM, 72 hours): most of the cells were dead
% of apoptotic (sub-G0/G1) cells (Hepa 1-6 cells [11]; 0.01 mM (text: μM)): 24.02%
% of apoptotic (sub-G0/G1) cells (Hepa 1-6 cells [11]; 0.1 mM (text: μM)): 55.64%
% of apoptotic (sub-G0/G1) cells (Hepa 1-6 cells [11]; 1 mM (text: μM)): 64.38%
